Measured values: PMC6792352, “Limited Chemical Structural Diversity Found to Modulate Thyroid Hormone Receptor in the Tox21 Chemical Library” (Environmental Health Perspectives, 2019)
Counter-ions that a name gives are not always drawn. Like-named read-outs stand apart in the source and are kept apart here.

Tested on: GH3-TRE-Luc cell line
Details: read-out: AC50 (uM) modified / 1000, viability, 1 nM T3 present, 24 h

Work on `COc1cc2c(c(OC)c1OC)-c1c(cc3c(c1OC)OCO3)C[C@H](C)[C@](C)(O)C2` [Gomisin A] yielded a CC50 (Tox21_110001=Tox21_113433) of 22.9 µM.

Compound `O=C1OC(c2ccc(O)cc2)(c2ccc(O)cc2)c2ccccc21` [Phenolphthalein] has a CC50 (Tox21_110001=Tox21_110838) of 16.8 µM, a CC50 (Tox21_110001=Tox21_202219) of 25.4 µM and a CC50 (Tox21_110001=Tox21_300282) of 49.8 µM.

Compound `C=C1C(CCl)(CCl)C2(Cl)C(Cl)C(Cl)C1(Cl)C2(Cl)Cl` (stereo not shown) [Toxaphene] has a CC50 (Tox21_110001=Tox21_111173) of 5.43 µM and a CC50 (Tox21_110001=Tox21_200912) of 23.5 µM.

For `COc1cc([C@@H]2c3cc4c(cc3[C@@H](O[C@@H]3O[C@@H]5CO[C@@H](C)O[C@H]5[C@H](O)[C@H]3O)[C@H]3COC(=O)[C@H]23)OCO4)cc(OC)c1O` [Etoposide], the CC50 (Tox21_110001=Tox21_110630) was 6.45 µM and the CC50 (Tox21_110001=Tox21_302201) was 2.85 µM.

With `Cc1ccc(-c2cc(C(F)(F)F)nn2-c2ccc(S(N)(=O)=O)cc2)cc1` [Celecoxib] the CC50 (Tox21_110001=Tox21_111135) was 21.2 µM, the CC50 (Tox21_110001=Tox21_201964) was 46.6 µM and the CC50 (Tox21_110001=Tox21_300599) was 62.4 µM.

Compound `CCCCCCCC[n+]1ccn(C)c1` [1-Methyl-3-octylimidazolium trifluoromethanesulfonate] has a CC50 (Tox21_110001=Tox21_200708) of 75.9 µM.

With `Cc1ncc[nH]1` [2-Methylimidazole] the CC50 (Tox21_110001=Tox21_111136) was 0.0572 µM.

In the case of `CCCCCCCCCCCC[N+](C)(C)Cc1ccccc1` [Benzyldodecyldimethylammonium bromide], the CC50 (Tox21_110001=Tox21_113091) is reported as 5.39 µM.

Work on `Cc1c(O)cccc1C(=O)N[C@@H](CSc1ccccc1)[C@H](O)CN1C[C@H]2CCCC[C@H]2C[C@H]1C(=O)NC(C)(C)C` [Nelfinavir mesylate] yielded a CC50 (Tox21_110001=Tox21_111021) of 3.68 µM and a CC50 (Tox21_110001=Tox21_200921) of 1.83 µM.

`CCCSc1ccc2nc(NC(=O)OC)[nH]c2c1` [Albendazole] gave a CC50 (Tox21_110001=Tox21_110659) of 0.271 µM.

`Oc1cc(Cl)ccc1Oc1ccc(Cl)cc1Cl` [Triclosan] was tested, and the CC50 (Tox21_110001=Tox21_111648) was 50.4 µM and the CC50 (Tox21_110001=Tox21_400079) was 13.3 µM.

Work on `CC(C)Nc1ccc(Nc2ccccc2)cc1` [N-Isopropyl-N'-phenyl-p-phenylenediamine] yielded a CC50 (Tox21_110001=Tox21_111169) of 13.5 µM, a CC50 (Tox21_110001=Tox21_201424) of 36.2 µM and a CC50 (Tox21_110001=Tox21_303202) of 33.4 µM.

`CC(=C(CCO)SSCC1CCCO1)N(C=O)Cc1cnc(C)nc1N` (stereo in doubt) [Fursultiamine] was tested, and the CC50 (Tox21_110001=Tox21_112989) was 34.7 µM.

`Nc1ccc(Nc2ccccc2)cc1` [N-Phenyl-1,4-benzenediamine] showed a CC50 (Tox21_110001=Tox21_202144) of 42.9 µM and a CC50 (Tox21_110001=Tox21_300027) of 22.6 µM.

`O=C1CN(/N=C/c2ccc(-c3ccc([N+](=O)[O-])cc3)o2)C(O)=N1` [Dantrolene sodium] showed a CC50 (Tox21_110001=Tox21_112013) of 11.2 µM and a CC50 (Tox21_110001=Tox21_301997) of 48.2 µM.

`CCCCCCCC[N+](C)(CCCCCCCC)CCCCCCCC` [Methyltrioctylammonium chloride] was tested, and the CC50 (Tox21_110001=Tox21_302198) was 5.04 µM.

In the case of `CC(C)(C)NC(=O)[C@@H]1CN(Cc2cccnc2)CCN1C[C@@H](O)C[C@@H](Cc1ccccc1)C(=O)N[C@H]1c2ccccc2C[C@H]1O` [Indinavir sulfate], the CC50 (Tox21_110001=Tox21_111687) is reported as 32 µM.

`CCCCCCCCCCCCn1cc[n+](C)c1` [1-Dodecyl-3-methylimidazolium tetrafluoroborate] showed a CC50 (Tox21_110001=Tox21_202629) of 3.46 µM.

Compound `[H]/N=C(\N/C(=N/[H])NCCCCCCNC(=N)NC(=N)Nc1ccc(Cl)cc1)Nc1ccc(Cl)cc1` [Chlorhexidine diacetate] has a CC50 (Tox21_110001=Tox21_302363) of 5.83 µM.

`Nc1ccc(Nc2ccccc2)cc1` [N-Phenyl-1,4-benzenediamine hydrochloride] showed a CC50 (Tox21_110001=Tox21_200117) of 57.3 µM.

For `O=[N+]([O-])c1ccc(O)cc1` [4-Nitrophenol], the CC50 (Tox21_110001=Tox21_300117) was 67.6 µM.

For `CC(C)NCC(O)COc1cccc2ccccc12` (stereo not shown) [Propranolol hydrochloride], the CC50 (Tox21_110001=Tox21_201886) was 73 µM and the CC50 (Tox21_110001=Tox21_302905) was 30.5 µM.

Compound `O=S1(=O)OC(c2ccc(O)cc2)(c2ccc(O)cc2)c2ccccc21` [Phenol red] has a CC50 (Tox21_110001=Tox21_303570) of 79.8 µM.

`CC(C)(C)NC(=O)[C@@H]1C[C@@H]2CCCC[C@@H]2CN1C[C@@H](O)[C@H](Cc1ccccc1)NC(=O)[C@H](CC(N)=O)NC(=O)c1ccc2ccccc2n1` [Saquinavir mesylate] gave a CC50 (Tox21_110001=Tox21_111137) of 9.01 µM and a CC50 (Tox21_110001=Tox21_202533) of 27.8 µM.

`COc1cccc2c1C(=O)c1c(O)c3c(c(O)c1C2=O)C[C@@](O)(C(=O)CO)C[C@@H]3O[C@H]1C[C@H](N)[C@H](O)[C@H](C)O1` [Adriamycin hydrochloride] showed a CC50 (Tox21_110001=Tox21_112061) of 1.54 µM and a CC50 (Tox21_110001=Tox21_202483) of 0.253 µM.

With `CN(C)c1ccc(C(=C2C=CC(=[N+](C)C)C=C2)c2ccc(N(C)C)cc2)cc1` [Gentian Violet] the CC50 (Tox21_110001=Tox21_111084) was 1.65 µM, the CC50 (Tox21_110001=Tox21_201762) was 0.893 µM and the CC50 (Tox21_110001=Tox21_300571) was 0.536 µM.

`O=C1OC2(c3ccccc31)c1cc(Br)c(O)c(Br)c1Oc1c2cc(Br)c(O)c1Br` [Eosin] gave a CC50 (Tox21_110001=Tox21_112323) of 9.05 µM and a CC50 (Tox21_110001=Tox21_302152) of 8.28 µM.

In the case of `CCCCCCCCCCCCCC[P+](CCCCCC)(CCCCCC)CCCCCC` [Trihexyltetradecylphosphonium hexafluorophosphate], the CC50 (Tox21_110001=Tox21_200750) is reported as 5.33 µM.

Compound `CC/C(=C(\c1ccccc1)c1ccc(OCCN(C)C)cc1)c1ccccc1` [Tamoxifen citrate] has a CC50 (Tox21_110001=Tox21_110938) of 5.89 µM, a CC50 (Tox21_110001=Tox21_202070) of 10.9 µM and a CC50 (Tox21_110001=Tox21_300274) of 4.69 µM.

For `Nc1ccn([C@@H]2O[C@H](CO)[C@@H](O)[C@@H]2O)c(=O)n1` [Cytarabine], the CC50 (Tox21_110001=Tox21_111203) was 0.708 µM and the CC50 (Tox21_110001=Tox21_301971) was 0.237 µM.

`CCCCCCCC[n+]1ccn(C)c1` [1-Methyl-3-octylimidazolium tetrafluoroborate] was tested, and the CC50 (Tox21_110001=Tox21_200695) was 44.3 µM.
